Measurements: patent US7655225B2, “Methods of expanding stem and progenitor cells and expanded cell populations obtained thereby” (Gamida Cell, Ltd., priority 2002, dated 2010)

How the values were obtained:
mononuclear cells (MNC) [1] = assay: Ex vivo expansion of stem and progenitor cells in mixed cells culture: cell enumeration and FACS; format: cell-based, human; details: for cumulative number of CD34+ cells per culture bag: control 2.56×10^6; for Portion of CD34+ cells (%): control 0.2; for Number of CD34+ cells (×10^4): control 256.0; for cumulative number of CD34+ cells: TEPA first three weeks only, FIGS. 16a-b
Protocol: Sample collection and processing: Samples were obtained from umbilical cord blood after a normal full-term delivery and were frozen within 24 hours pospartum. The blood cells were thawed in Dextran buffer and incubated for […] in MEM (Biological Industries, Israel) supplemented with 10% fetal calf serum (FCS; Biological Industries). The cells were then layered on Ficoll-Hypaque (density 1.077 gram/ml; Sigma) and centrifuged at 400 g for 30 minutes at room temperature. The mononuclear cells in the interface layer were then collected, washed three times in phosphate-buffered saline (PBS; Biological Industries), and re-suspended in PBS containing 0.5% human serum albumin (HSA). The cells were then split into two fractions, the first being the mononuclear cells (MNC) and the second fraction was used for purifying CD34^+ cells by immunomagnetic separation using the “MiniMACS CD34^+ progenitor cell isolation kit” (Miltenyi Biotec, Auburn, Calif.) according to the manufacturer's recommendations. The purity of the CD34^+ cells obtained ranged between 95% and 98%, based on Flow Cytometry evaluation (see below). Ex vivo expansion of progenitor cells: The non-purified mononuclear cells (MNC), obtained as described hereinabove, were seeded in Culture Bags (American Fluoroseal Corp.), with alpha minimal essential medium supplemented with 10% fetal bovine serum (FBS, Biological Industries), at a concentration of about 10^6 cells/ml. The purified CD34^+ cells were similarly seeded in the Culture Bags, at a concentration of […]. The media were supplemented with TEPA chelator and/or with the following human recombinant cytokines (all obtained from Perpo Tech, Inc., Rocky Hill, N.J.): Thrombopoietin (TPO), 50 ng/ml; interleukin 6 (IL-6), 50 ng/ml; FLT-3 ligand, 50 ng/ml and a stem cell factor (SCF), 50 ng/ml; occasionally SCF was replaced by IL-3, 20 ng/ml. For non-hemopoietic differentiation, FGF, EGF, NGF, VEGF, LIF or Hepatocyte growth factor, were used alone or in various combinations. All cultures were incubated at 37° C. in an atmosphere of 5% CO2 in air with extra humidity. At weekly intervals, the cell cultures were semi-depopulated and supplemented with fresh medium containing cytokines. Following different incubation periods, cells were harvested, stained with trypan blue and enumerated. Determining the density of stem and progenitor subset populations following expansion was carried out as described in the experimental procedures section of Example 3 above. Non-purified mononuclear cells (MNC) were seeded in culture bags and were provided with nutrients and cytokines as described above. The MNC cultures were either treated or untreated (untreated controls) with TEPA-chelator. The treated MNC cultures were supplemented with TEPA for only the first three weeks and from week three onward were topped with chelator-free media. The pre-purified CD34^+ cultures were not supplemented with TEPA and served as positive controls. The cultures were analyzed weekly during a 12-week period. Non-purified (mixed cells) mononuclear cells (MNC) were seeded in culture bags and were provided with nutrients and cytokines as described in Example 4 above. The mixed cell cultures were either untreated (control) or treated with Cu-TEPA chelate. The treated MNC cultures were supplemented with Cu-TEPA chelate for only the first three weeks and from week three onward were topped with chelator-free media. All cultures were analyzed […].

CD34+ cells = assay: Morphological assessment of cultured CD34+ cells; format: cell-based, human; details: 8-weeks culture; control: mainly differentiated cells; FIGS. 3a-b
From the text: Morphological assessment: In order to characterize the resulting culture populations, aliquots of cells were deposited on a glass slide (cytocentrifuge, Shandon, Runcorn, UK), fixed and stained in May-Grunwald and Giemsa stain.

platelets = assay: In vivo recovery of platelets after gamma-irradiation; design: species or system mice (BALB/C X C57B1/6/F1); details: single treatment, 30 μM; irradiated mice
Protocol: In this experiment, ten mice (BALB/C X C57B1/6/F1) were gamma-irradiated (700 cGy) so as to mimic an irradiation therapy situation that destroys platelets. One day after irradiation five (out of ten) mice were administered with 30 μM of Cu-TEPA, while the other five mice were non-treated. The platelet levels in all mice were enumerated one week after irradiation. […] The results of this experiment illustrate that a copper chelate can effectively enhance the recovery of hematopoietic cells in subjects exposed to irradiation treatment.

mononuclear cells (MNC) [2] = assay: Colony-forming cells (CFUs) from mixed cells (MNC) culture; format: cell-based, human; details: FIG. 18
Protocol: Self-renewal potential evaluations: The self-renewal potential of stem cells was determined in vitro by long-term colony formation. Cells were washed and seeded in a semi-solid methylcellulose medium supplemented with 2 IU/ml erythropoietin (Eprex, Cilage AG Int., Switzerland), stem cell factor and IL-3, both at 20 ng/ml (Perpo Tech), and G-CSF and GM-CSF, both at 10 ng/ml (Perpo Tech). The resulting colonies were scored after two weeks of incubation at 37° C. in a humidified atmosphere of 5% CO2 in air. Colonies were classified as blast, mixed, erythroid, myeloid, and megakaryocytic, according to their cellular composition.
Ex vivo expansion of progenitor cells: The non-purified mononuclear cells (MNC), obtained as described hereinabove, were seeded in Culture Bags (American Fluoroseal Corp.), with alpha minimal essential medium supplemented with 10% fetal bovine serum (FBS, Biological Industries), at a concentration of about 10^6 cells/ml. The purified CD34^+ cells were similarly seeded in the Culture Bags, at a concentration of […]. The media were supplemented with TEPA chelator and/or with the following human recombinant cytokines (all obtained from Perpo Tech, Inc., Rocky Hill, N.J.): Thrombopoietin (TPO), 50 ng/ml; interleukin 6 (IL-6), 50 ng/ml; FLT-3 ligand, 50 ng/ml and a stem cell factor (SCF), 50 ng/ml; occasionally SCF was replaced by IL-3, 20 ng/ml. […]

mononuclear cells (MNC) [3] = assay: Morphological analysis of cells from long-term MNC cultures; format: cell-based, human; details: untreated: fully differentiated
Protocol: Morphological assessment: In order to characterize the resulting culture populations, aliquots of cells were deposited on a glass slide (cytocentrifuge, Shandon, Runcorn, UK), fixed and stained in May-Grunwald and Giemsa stain. Cloning potential evaluation, morphological assessment and surface antigen analyses were carried out as described in the experimental procedures section of Example 1 above.

[4] = 50 μM, MNC culture, eight weeks after seeding
[5] = 100 μM, MNC culture, eight weeks after seeding

Row | SMILES | cumulative number of CD34+ cells per culture bag (mononuclear cells (MNC) [1]; 50 μM, MNC culture, 8 weeks) | Portion of CD34+ cells (%) (mononuclear cells (MNC) [1]; [4]) | Number of CD34+ cells (×10^4) (mononuclear cells (MNC) [1]; [4]) | cumulative number of CD34+CD38− cells (mononuclear cells (MNC) [1]; 100 μM, MNC culture, 8 weeks, control 2.1×10^5) | cumulative number of CD34+ cells per culture bag (mononuclear cells (MNC) [1]; 100 μM, MNC culture, 8 weeks) | Portion of CD34+ cells (%) (mononuclear cells (MNC) [1]; [5]) | Nunber of CD34/38− cells (×10^4) (mononuclear cells (MNC) [1]; 100 μM, MNC culture, eight weeks after seeding, control 21) | Number of CD34+ cells (×10^4) (mononuclear cells (MNC) [1]; [5]) | morphological analysis of culture (CD34+ cells) | recovery of platelets vs non-treated control (platelets) | number of CD34+ CFUs (mononuclear cells (MNC) [2]; after 2 weeks) | number of CD34+ CFUs (mononuclear cells (MNC) [2]; after 10 weeks) | cumulative number of CD34+CD38− cells (mononuclear cells (MNC) [1]; MNC culture, after 2 weeks, FIG. 17) | cumulative number of CD34+ cells (mononuclear cells (MNC) [1]; MNC culture, after 2 weeks) | cumulative number of CD34+CD38− cells (mononuclear cells (MNC) [1]; MNC culture, after 12 weeks, FIG. 17) | cumulative number of CD34+ cells (mononuclear cells (MNC) [1]; MNC culture, after 12 weeks) | stem and progenitor cells densities vs pre-purified CD34+ cells cultures (not treated with TEPA) (mononuclear cells (MNC) [1]; TEPA-treated MNC cultures, 12-week period) | morphological analysis of cells (mononuclear cells (MNC) [3])
1 | NCCNCCNCCNCCN.[Cl-].[Cl-].[Cu+2] [TEPA-Cu chelate, tetraethylenepentamine-copper chelate] | 12.37×10^6 | 1.4 | 1237.3 ×10^4 | 6.1×10^5 | 32.85×10^6 | 1.2 | 61 ×10^4 | 3285.3 ×10^4 | mainly blast-like cells | significantly accelerated | – | – | – | – | – | – | – | –
2 | NCCNCCNCCNCCN [TEPA chelator, tetraethylenepentamine] | – | – | – | – | – | – | – | – | – | – | non-detectable | 3.2×10^7 cells/ml | non-detectable | non-detectable | 2.5×10^7 cells/ml | over 8×10^7 cells/ml | either equalized or surpassed | high proportion of non-differentiated cells
